From article PMC5118709, “Identification of Polo-like kinase 1 interaction inhibitors using a novel cell-based assay” (Scientific Reports, 2016)
Read-outs that look alike come from different tables or passages of the source.

Legend:
HeLa cells = assay: mitotic defect phenotypes by immunofluorescence; format: cell-based; details: 10 nM, 7 h
Method: HeLa cells were treated with these compounds along with the known PBD inhibitors PPG, TQ, Poloxin and the KD inhibitor BI2536 as controls, and then stained against α-Tubulin, pericentrin (a centrosome marker) and DNA (Fig. 2D). In all cases, there was a marked increase in the frequency of disorganized spindles compared with DMSO-treated control cells. This is expected as Plk1 plays multiple roles in spindle assembly and maintenance. […] Cpd 69, an analog of compound 122, induced a similar phenotype at lower concentrations (data not shown). This phenotype was not seen after treatment with BI2536.
For the mitotic defect phenotypes, 25 200 HeLa cells were plated on poly-L-lysine coated round cover slips in 24-well plates. The day after, cells were treated for 7 hours, and then washed with PHEM buffer at 37 °C before fixation in PHEM buffer containing 4% formaldehyde for 20 minutes at 37 °C. Cells were washed three times with TBS-tween 0.1% and plate was kept overnight at 4 °C. Next steps were followed as previously described except that coverslips were incubated in a dark wet chamber with antibodies. Anti-pericentrin (diluted 1:1000; Abcam), anti-α-tubulin DM1A (diluted 1:500; Sigma-Aldrich), Alexa Fluor 488 anti-rabbit and Texas-Red anti-mouse (diluted 1:200; Invitrogen) were used. Coverslips were mounted on slide using Vectashield media containing DAPI (Vector Laboratories).
Images shown in Fig. 2D were acquired on an AxioImager microscope (Carl Zeiss) with a 100x oil objective (NA 1.4 DICIII) and an AxioCam HRM camera (Carl Zeiss) using AxioVision software (Carl Zeiss).

GST-PBD367-603 of Plk1 = GST-PBD367-603 of Plk1 (Homo sapiens, UniProt P53350); assay: fluorescence polarization assay PBD-phosphopeptide; details: for activity in the FP assay: SAR
GST-PBD367-603 of Plk1, sequence (P53350 367-603): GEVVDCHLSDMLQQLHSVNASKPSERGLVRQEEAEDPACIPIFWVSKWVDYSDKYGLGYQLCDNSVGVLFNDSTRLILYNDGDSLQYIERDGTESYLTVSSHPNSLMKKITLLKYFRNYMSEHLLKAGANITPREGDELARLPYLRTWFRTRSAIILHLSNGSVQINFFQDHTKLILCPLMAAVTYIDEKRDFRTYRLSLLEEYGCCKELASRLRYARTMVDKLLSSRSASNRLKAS
Method: In this assay, an optimal phosphopeptide for PBD binding is coupled with a FITC fluorophore and its binding to purified recombinant PBD of Plk1 is monitored by the change in polarization of incident light.
The FP buffer was composed of 10 mM Tris pH 8.0, 50 mM NaCl, 1 mM EDTA, 20% glycerol and 0.1% NP-40. The peptide (final concentration 10 nM) was always added to the wells of non-binding, black, 384-well plates, 1 hour after the addition of the protein with the buffer (+/− treatment, 10% DMSO). […] EC65s were used to perform the competitive assays with the non-labeled peptides and with the inhibitors. FP Inhibition was calculated with the formula: 100 − [((mPsample − mPfree peptide)\(mPDMSO − mPfree peptide)) × 100]. […] (Map peptide), and corresponding non-labeled peptides are identical but without FITC in N-terminal. […] Inhibition curves were fitted with GraphPad (Prism software).

| IC50 (GST-PBD367-603 of Plk1; read-out: FP - IC50, Table S3) [µM] | FP - IC50 (μM) (GST-PBD367-603 of Plk1; Table S3) | SMILES | further results |
| --- | --- | --- | --- |
| – | – | CC[C@@H]1C(=O)N(C)c2cnc(Nc3ccc(C(=O)NC4CCN(C)CC4)cc3OC)nc2N1C1CCCC1 [BI2536] | 2 > pericentrin foci (percentage of cells) (HeLa cells): 3 ± 2%; Disorganized spindles (percentage of cells) (HeLa cells): 55 ± 8% |
| 7.2 | – | Cc1ccc(C(=O)OCCS(=O)(=O)c2ccc(C(F)(F)F)cn2)cc1 [Cpd 123] | – |
| – | – | O=C(OCCS(=O)(=O)c1ccccn1)c1ccccc1 [Cpd 124] | IC50 (GST-PBD367-603 of Plk1; FP - IC50 (μM), Table S3): 68.6 ± 18.5 µM; IC50 (GST-PBD367-603 of Plk1; IC50 in FP, GST-PBD367-603 38 nM, 1 h pre-incubation, FITC-phosphopeptide 10 nM, Fig. 4C): 56 µM |
| 11.9 ± 7.2 | – | O=C(OCCS(=O)(=O)c1ccc(C(F)(F)F)cn1)c1cccc(Cl)c1 [Cpd 125] | – |
| 4.3 | – | O=C(OCCS(=O)(=O)c1ncccc1Cl)c1cccc(Cl)c1 [Cpd 126] | – |
| 187 | – | O=C(OCCS(=O)(=O)c1ccccn1)c1cccc(Cl)c1 [Cpd 127] | – |
| 8.4 | – | O=C(OCCS(=O)(=O)c1ncccc1C(F)(F)F)c1cccc(Cl)c1 [Cpd 128] | – |
| 8.5 | – | O=C(OCCS(=O)(=O)c1ccc(C(F)(F)F)cn1)c1ccccc1 [Cpd 129] | – |
| 7.8 | – | O=C(OCCS(=O)(=O)c1ccc(C(F)(F)F)cn1)c1ccc(Cl)c(Cl)c1 [Cpd 130] | – |
| 70.5 | – | O=C(OCCS(=O)(=O)c1ccc(Cl)cn1)c1cccc(Cl)c1 [Cpd 131] | – |
| 26.1 | – | CC(C)(C)c1ccc(C(=O)OCCS(=O)(=O)c2ccc(C(F)(F)F)cn2)cc1 [Cpd 132] | – |
| 5.4 | – | O=C(OCCS(=O)(=O)c1ccc([N+](=O)[O-])cn1)c1cccc(Cl)c1 [Cpd 133] | – |
| – | No inhibition | O=S(=O)(CC(O)COc1ccccc1)c1ccccn1 (centres unmarked) [Cpd 136] | – |
| – | No inhibition | Cc1ccc(S(=O)(=O)CCC(=O)Nc2cccc(Cl)c2)cc1 [Cpd 137] | – |
| – | No inhibition | Cc1ccc(S(=O)(=O)CCC(=O)OCc2ccc(Cl)c(Cl)c2)cc1 [Cpd 138] | – |
| – | No inhibition | O=[N+]([O-])c1cccc(S(=O)(=O)NCCOc2cccc(Cl)c2Cl)c1 [Cpd 139] | – |
| – | No inhibition | Cc1c(Cl)cccc1NC(=O)CCS(=O)(=O)c1ccccc1 [Cpd 140] | – |
| – | No inhibition | CC(CC(=O)Nc1ccc(Cl)cc1)S(=O)(=O)c1ccc(Cl)cc1 (centres unmarked) [Cpd 141] | – |
| – | No inhibition | O=C(CS(=O)(=O)c1cc(C(F)(F)F)cc(C(F)(F)F)c1)Nc1ccccc1F [Cpd 143] | – |

| IC50 (GST-PBD367-603 of Plk1; read-out: FP - IC50, Table S3) [µM] | FP - IC50 (μM) (GST-PBD367-603 of Plk1; Table S3) | SMILES | further results |
| --- | --- | --- | --- |
| – | No inhibition | O=C(CS(=O)(=O)c1ccc(C(F)(F)F)cn1)NNC(=O)c1ccccc1 [Cpd 144] | – |
| – | No inhibition | Cc1ccc(NC(=O)CCS(=O)(=O)c2ccccc2)c(Br)c1 [Cpd 145] | – |
| – | No inhibition | Cc1cc(C(F)(F)F)cc(SCCO)n1 [Cpd 146, 2-((6-methyl-4-(trifluoromethyl)pyridin-2-yl)thio) ethanol] | – |
| – | No inhibition | Cc1cc(C(F)(F)F)cc(SCCOC(=O)c2cccc(Cl)c2)n1 [Cpd 147, 2-((6-methyl-4-(trifluoromethyl)pyridin-2-yl)thio)ethyl 3-chlorobenzoate] | activity in the FP assay (GST-PBD367-603 of Plk1): activity was abolished |
| – | No inhibition | Cc1cc(C(F)(F)F)cc([S+]([O-])CCOC(=O)c2cccc(Cl)c2)n1 (centres unmarked) [Cpd 148, 2-((6-methyl-4-(trifluoromethyl)pyridin-2-yl)sulfinyl)ethyl 3-chlorobenzoate] | activity in the FP assay (GST-PBD367-603 of Plk1): activity was abolished |
| – | No inhibition | Cc1cc(C(F)(F)F)cc(SCCOC(=O)c2cccc(OC(F)(F)F)c2)n1 [Cpd 149] | – |
| – | No inhibition | Cc1cccc(C(=O)OCCSc2cc(C(F)(F)F)cc(C)n2)c1 [Cpd 150] | – |
| 41.7 | – | Cc1cc(C(F)(F)F)cc(S(=O)(=O)CCOC(=O)c2cccc(OC(F)(F)F)c2)n1 [Cpd 151] | – |
| 54.4 | – | Cc1cccc(C(=O)OCCS(=O)(=O)c2cc(C(F)(F)F)cc(C)n2)c1 [Cpd 152] | – |
| – | No inhibition | Cc1cc(C(F)(F)F)cc(SCCOC(=O)c2cccc(Br)c2)n1 [Cpd 153] | – |
| 36.8 | – | Cc1cc(C(F)(F)F)cc(S(=O)(=O)CCOC(=O)c2cccc(Br)c2)n1 [Cpd 154] | – |
| – | No inhibition | Cc1cc(C(F)(F)F)cc(SCCOC(=O)c2cc(Cl)cc(Cl)c2)n1 [Cpd 155] | – |
| 48.1 | – | Cc1cc(C(F)(F)F)cc(S(=O)(=O)CCOC(=O)c2cc(Cl)cc(Cl)c2)n1 [Cpd 156] | – |
| – | No inhibition | Cc1cc(C(F)(F)F)cc(SCCOCc2cccc(Cl)c2)n1 [Cpd 157] | – |
| – | No inhibition | Cc1cc(C(F)(F)F)cc(S(=O)(=O)CCO)n1 [Cpd 158, 2-((6-methyl-4-(trifluoromethyl)pyridin-2-yl)sulfonyl)ethanol] | activity in the FP assay (GST-PBD367-603 of Plk1): completely abrogated activity |
| – | No inhibition | Cc1cc(C(F)(F)F)cc(S(=O)(=O)CCOCc2cccc(Cl)c2)n1 [Cpd 159] | – |
| 75 | – | Cc1cc(C(F)(F)F)cc(S(=O)(=O)CCOC(=O)C2CCCCC2)n1 [Cpd 160] | – |
| – | No inhibition | Cc1cc(C(F)(F)F)cc(SCCOC(=O)C2CCCCC2)n1 [Cpd 168] | – |
| – | No inhibition | CCS(=O)(=O)c1cc(C(F)(F)F)cc(C)n1 [Cpd 169, 2-(ethylsulfonyl)-6-methyl-4-(trifluoromethyl)pyridine] | activity in the FP assay (GST-PBD367-603 of Plk1): completely abrogated activity |

| SMILES | IC50 (GST-PBD367-603 of Plk1; read-out: FP - IC50, Table S3) [µM] | FP - IC50 (μM) (GST-PBD367-603 of Plk1; Table S3) | further results |
| --- | --- | --- | --- |
| O=C(NCCS(=O)(=O)c1ccc(C(F)(F)F)cn1)c1ccc(Cl)cc1 [Cpd 142] | – | No inhibition | activity in the FP assay (GST-PBD367-603 of Plk1): activity was abolished |
| Cc1cc(C(F)(F)F)cc(S(=O)(=O)CCOS(C)(=O)=O)n1 [Cpd 164, 2-((6-methyl-4-(trifluoromethyl)pyridin-2-yl)sulfonyl) ethyl methanesulfonate] | 6 | – | – |
